From US8193224B2, “Medicinal composition for prevention or treatment of parasitic protozoan infection” (Fujifilm Corporation, priority 2004, dated 2012)

Key:
Assay type in all cases: cell-based
[1] = tested on: Leishmania donovani (MHOM/ET/67/L82 strain); experiment: Leishmania protozoa growth inhibition screening test; conditions: chemotherapy index = EC50 rat L6 cells / EC50 leishmania protozoa
[2] = Growth inhibition test of rat L6 cells; conditions: L6 cells (rat skeletal myoblast), Alamar Blue (Table 2), read-out: 50% growth inhibition concentration Cytotoxicity L6
Protocol: Rat derived-L6 cells (rat skeletal myoblast cell) were used. As medium, RPMI1640 medium was supplemented so that L-glutamin (200 mM) is 1%, and fetal bovine serum 10%, and the medium was cultured under CO2 concentration 5%, at 37° C. The compounds of the present invention and the target drugs to be used in the test were dissolved in DMSO, to make a test solution of a predetermined concentration. Pre-culture was conducted and medium containing cells which have entered the logarithmic growth phase was taken to wells of a 96-well culture plate. Then, a test solution containing drug of a predetermined concentration or a drug-free DMSO was added. Test solutions were taken by duplicates. Culture plate was cultured for 72 hours in an incubator, to test the growth inhibition activity. Test was conducted as follows.
10 μl of Alamar Blue aqueous solution was added to each well, and the resultant was further cultured for 2 hours. Next, the culture plate was placed on a fluorescent micro-plate reader (Spectramax Gemeni XS; US Molecular Device), radiated at an excited wavelength of 536 nm. Fluorescent intensity was measured at 588 nm, and residual rate of L6 cells of the test solution added group, and that of the control was calculated. Based on the cell residual rate obtained in the above, growth inhibition rate to L6 cells was calculated, to obtain a 50% growth inhibition concentration (EC50). Growth inhibition rate (%)={(C−A)/(B−A)}×100 A: primary cell count B: cell count of control, 3 days after C: cell count of wells added with a sample, 3 days after […]

[3] = tested on: Trypanosoma brucei rhodensiense (STIB 900 strain); experiment: African trypanosome protozoa growth inhibition screening test; conditions: chemotherapy index = EC50 rat L6 cells / EC50 African trypanosome protozoa

Row | SMILES | Selective toxicity [1] | EC50 at 72 h [2] [µM] | Selective toxicity [3]
1 | CCN1C(C)=CS/C1=C\C=c1/s/c(=C\c2sc3ccccc3[n+]2CC)n(CC)c1=O [A-15] | 130 | 22 | 250
2 | CCN1/C(=C/C=c2\s/c(=C\C3=[N+](CC)CCS3)n(CC)c2=O)C=Cc2ccccc21 [A-10] | 130 | 20 | 100
3 | CCN1/C(=C/C=c2\s/c(=C\c3sc4c5ccccc5ccc4[n+]3CC)n(CC)c2=O)Sc2ccc3ccccc3c21 [A-1] | 3600 | 30 | 1900
